# Source: US8993768B2, “Tropolone compounds for treating or preventing retroviral infection” (The United States of America, as represented by the …, priority 2011, dated 2015)
# Where two headings read alike, the source gives them in different places.
# Legend:
# p66^EQ/p51 HIV-1 RT = target: T1, p66^EQ/p51 HIV-1 RT (Human immunodeficiency virus type 1 group M subtype B, UniProt P04585, E1065Q); test: DNA-dependent DNA polymerase assay, RNase H-deficient mutant p66EQ/p51; format: biochemical; conditions: 20 μM
# T1 construct: RT is a p66/p51 heterodimer comprised of asymmetrically-organized subunits processed from the 165 kDa gag/pol polyprotein precursor; (His)6; made in house; host or cells: Escherichia coli
# Protocol: (§1) DNA-dependent DNA synthesis was measured on a fluorescently-labeled duplex DNA prepared by annealing a 33-nt template, 5′-CACTGCTCAAGAAGTTCCAATCCTAAATACATA-3′ (SEQ ID NO: 3), to the 5′-Cy5-labeled primer 5′-ATGTATGGGTATGTATTTAGG-3′ (SEQ ID NO: 4). Polymerization was initiated by adding 1 μl of 2 mM dNTPs to 9 μl of mixture containing 4 ng enzyme, 200 nM substrate, 20 μM α-hydroxytropolones in 10 mM Tris, pH 7.8, 80 mM KCl, 1 mM DTT, 10 mM MgCl2, and 10% DMSO at 37° C. DNA synthesis was quenched with 10 μl of a gel-loading buffer after 10 minutes, and reaction products were analyzed by denaturing polyacrylamide gel electrophoresis and fluorescent imaging.
# (§2) In order to examine the specificity of our manicol analogs, their effect on the DNA polymerase activity of wild type p66/p51 HIV-1 RT and RNase H-deficient derivatives was determined. In particular, RNase H-deficient strains p66^EQ/p51 and p66^DA/p51, were tested, which harbor mutations in one of the catalytically-critical amino acids contacted by manicol (E478 and D549, respectively), that would be predicted to interfere with α-hydroxytropolone binding.
# (§3) Although crystallographic evidence is presently unavailable, compounds 5 and 10, thus appear capable of occupying a second site on HIV-1 RT.
# [1] = system: HIV-1 virus strain RF in CEM-SS cells; test: HIV-1 cytopathicity assay; format: cell-based; conditions: for EC50: read-out: Virus Replication EC50
# Protocol: This assay was conducted as previously reported (Weislow, O, S., et al., J. Natl. Cancer Inst., 81(8):577-86 (1989)). Samples were dissolved in DMSO at 10 mM and diluted to a final high concentration of 50 μM in the 96-well assay plate, with 2-fold dilutions made to a low concentration of about 0.78 μM. All samples were tested in duplicate. The HIV-1 virus strain RF was used to infect CEM-SS cells. Compound cytotoxicity was measured in the same assay plate using uninfected cells. Regression analysis was used to estimate the effective concentration (EC50) as well as the cytotoxic concentration (CC50).
# HIV-1 RT RNase H = target: T2, HIV-1 RT RNase H (Human immunodeficiency virus type 1 group M subtype B, UniProt P04585); test: Cleavage of the HIV-1 polypurine tract (PPT) primer, PPT/U3 junction; format: biochemical; conditions: 20 μM inhibitor
# T2 construct: RT is a p66/p51 heterodimer comprised of asymmetrically-organized subunits processed from the 165 kDa gag/pol polyprotein precursor; (His)6; made in house; host or cells: Escherichia coli
# Protocol: FIG. 2A depicts a schematic model of RNA/DNA substrate, indicating the RNase H cleavage site at the PPT/U3 junction (< >). The PPT is indicated by the shaded box. FIG. 2B depicts the quantification of PPT cleavage data. All inhibitors were evaluated at 20 μM.
# (§4) IC50 values were determined as previously reported (Budihas, S. R., et al., Nucleic Acids Res., 33(4):1249-56 (2005)), using an 18-nucleotide 3′-flourescein-labeled RNA annealed to a complementary 18-nucleotide 5′-dabsyl-labeled DNA. […] The reaction was initiated by adding 1 μl of 100 mM MgCl2 to 9 μl of mixture containing 4 ng enzyme, 200 nM substrate, 20 μM α-hydroxytropolones in 50 mM Tris, pH 8.0, 80 mM KCl, 2 mM DTT, and 10% DMSO at 37° C., and quenched with 10 μl of a gel-loading buffer after 10 minutes. Hydrolysis products were fractionated by denaturing polyacrylamide gel electrophoresis and visualized by fluorescent imaging (Typhoon Trio+, GE Healthcare, Piscataway, N.J.).
# Since the high-throughput RNase H assay examines non-specific, “polymerase-independent” RNase H activity defined by the spatial separation of the DNA polymerase and RNase H active site of HIV-1 RT (Gopalakrishnan, V., et al., Proc. Natl. Acad. Sci. USA, 89(22):10763-7 (1992)), an examination of whether α-hydroxytropolones altered cleavage specificity on a more biologically-relevant substrate, namely the polypurine tract (PPT) primer, which must be processed from the RNA/DNA replication intermediate to initiate (+) strand DNA synthesis.
# p66^DA/p51 HIV-1 RT = target: T3, p66^DA/p51 HIV-1 RT (Human immunodeficiency virus type 1 group M subtype B, UniProt P04585, D1136A); test: DNA-dependent DNA polymerase assay, RNase H-deficient mutant p66DA/p51; format: biochemical; conditions: 20 μM
# T3 construct: RT is a p66/p51 heterodimer comprised of asymmetrically-organized subunits processed from the 165 kDa gag/pol polyprotein precursor; (His)6; made in house; host or cells: Escherichia coli
# Protocol: as §1, §2, §3
# [2] = Compound cytotoxicity in uninfected cells (same assay plate); format: cell-based; conditions: human, uninfected CEM-SS cells; read-out: Virus Replication CC50
# Protocol: (§5) All samples were tested in duplicate. The HIV-1 virus strain RF was used to infect CEM-SS cells. Compound cytotoxicity was measured in the same assay plate using uninfected cells. Regression analysis was used to estimate the effective concentration (EC50) as well as the cytotoxic concentration (CC50).
# [3] = target: T4, HIV-1 RNase H (p66/p51 HIV-1 RT) (Human immunodeficiency virus type 1 group M subtype B, UniProt P04585); test: High throughput RNase H assay on sequence-independent RNA/DNA hybrid; format: biochemical; conditions: HIV-1 RNase H enzymatic activity, sequence-independent RNA/DNA hybrid; read-out: In vitro IC50
# T4 construct: RT is a p66/p51 heterodimer comprised of asymmetrically-organized subunits processed from the 165 kDa gag/pol polyprotein precursor; (His)6; made in house; host or cells: Escherichia coli
# Protocol: as §4, with “N.J.). […]” for “N.J.).”
# uninfected CEM-SS cells = test: Compound cytotoxicity in uninfected cells (same assay plate); format: cell-based
# Protocol: as §5
# [4] = target: T4, HIV-1 RNase H (p66/p51 HIV-1 RT); conditions: background, previously demonstrated; cited from earlier work
# [5] = system: HIV-1 virus strain RF in CEM-SS cells; conditions: background, previous finding; cited from earlier work
Compound,effect on DNA-dependent DNA polymerase activity (p66^EQ/p51 HIV-1 RT),protection against the cytopathic effect of the virus (in words) ([1]; HIV-1 RF),"EC50 ([1]; Human immunodeficiency virus 1, CEM-SS, HIV-1 RF)",inhibition of PPT/U3 cleavage (in words) (HIV-1 RT RNase H),effect on DNA-dependent DNA polymerase activity (p66^DA/p51 HIV-1 RT),CC50 [2],IC50 [3],EC50 ([1]; HIV-1 RF),CC50 (uninfected CEM-SS cells),"EC50 ([1]; Human immunodeficiency virus 1, HIV-1 RF)",inhibition of RNase H activity of HIV RT in vitro [4],reduction of virus replication in culture [5]
"Cc1cc(O)c(=O)c(O)c2c1CC(C(C)(O)CNc1ccccc1)CC2 (mixture of isomers) [Compound 5, 5,7-Dihydroxy-2-(1-hydroxy-1-methyl-2-phenylamino-ethyl)-9-methyl-1,2,3,4-tetrahydrobenzocyclohepten-6-one]",significantly and consistently inhibited,showed protection,7.4 µM,more active in blocking PPT/U3 cleavage,significantly and consistently inhibited,31.7 µM,1200 nM,–,–,–,–,–
"Cc1cc(O)c(=O)c(O)c2c1CC(C(C)(O)C[S+]([O-])Cc1ccccc1)CC2 (stereo not shown) [Compound 10, 2-(2-Benzylsulfinyl-1-hydroxy-1-methyl-ethyl)-5,7-dihydroxy-9-methyl-1,2,3,4-tetrahydrobenzocyclohepten-6-one]",significantly and consistently inhibited,showed protection,–,less active,significantly and consistently inhibited,–,1500 nM,14.5 µM,> 50 µM,–,–,–
"C=C(C)[C@H]1CCc2c(c(C)cc(O)c(=O)c2O)C1 [Manicol, 5,7-dihydroxy-2-isopropenyl-9-methyl-1,2,3,4-tetrahydro-benzocyclohepten-6-one, reference compound]",–,no protection,–,–,–,13.6 µM,–,–,–,13.6 µM,potently and specifically inhibit,ineffective
